{"source": "patent US9145411B2", "about": "“Substituted amino-pyrimidine derivatives” (Asana Biosciences, LLC, priority 2012, dated 2015)", "key": {"PI3 kinase isoform β": {"target": "PI3 kinase isoform β (Homo sapiens, UniProt P42338)", "sequence (P42338 whole entry, canonical isoform)": "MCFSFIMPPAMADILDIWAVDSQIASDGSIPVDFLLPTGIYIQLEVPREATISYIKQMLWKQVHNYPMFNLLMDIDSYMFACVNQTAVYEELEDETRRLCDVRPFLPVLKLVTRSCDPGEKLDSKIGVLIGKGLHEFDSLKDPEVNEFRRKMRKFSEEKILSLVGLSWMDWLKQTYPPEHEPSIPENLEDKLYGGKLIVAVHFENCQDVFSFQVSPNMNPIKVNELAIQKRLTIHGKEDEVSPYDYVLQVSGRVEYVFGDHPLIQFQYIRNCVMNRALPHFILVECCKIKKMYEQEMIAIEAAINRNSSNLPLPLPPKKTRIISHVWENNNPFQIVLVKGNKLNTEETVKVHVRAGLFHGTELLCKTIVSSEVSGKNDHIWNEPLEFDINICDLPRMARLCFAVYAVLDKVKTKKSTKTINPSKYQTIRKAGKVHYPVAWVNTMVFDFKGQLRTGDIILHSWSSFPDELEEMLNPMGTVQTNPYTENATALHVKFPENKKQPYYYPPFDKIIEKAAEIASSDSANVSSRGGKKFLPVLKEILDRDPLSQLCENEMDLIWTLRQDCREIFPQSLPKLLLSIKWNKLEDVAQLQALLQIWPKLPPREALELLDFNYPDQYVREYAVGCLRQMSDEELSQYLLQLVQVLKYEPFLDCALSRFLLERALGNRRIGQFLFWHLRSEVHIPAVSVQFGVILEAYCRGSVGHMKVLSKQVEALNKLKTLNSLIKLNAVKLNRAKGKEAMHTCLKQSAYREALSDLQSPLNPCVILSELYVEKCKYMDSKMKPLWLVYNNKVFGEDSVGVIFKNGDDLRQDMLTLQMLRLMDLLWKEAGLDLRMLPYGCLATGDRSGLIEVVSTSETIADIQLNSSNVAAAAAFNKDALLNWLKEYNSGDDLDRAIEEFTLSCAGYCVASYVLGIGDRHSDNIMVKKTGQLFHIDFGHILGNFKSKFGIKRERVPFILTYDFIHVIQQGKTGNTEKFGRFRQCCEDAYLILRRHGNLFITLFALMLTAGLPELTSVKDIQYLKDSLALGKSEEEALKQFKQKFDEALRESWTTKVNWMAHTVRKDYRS", "sequence (P27986 whole entry partner, canonical isoform)": "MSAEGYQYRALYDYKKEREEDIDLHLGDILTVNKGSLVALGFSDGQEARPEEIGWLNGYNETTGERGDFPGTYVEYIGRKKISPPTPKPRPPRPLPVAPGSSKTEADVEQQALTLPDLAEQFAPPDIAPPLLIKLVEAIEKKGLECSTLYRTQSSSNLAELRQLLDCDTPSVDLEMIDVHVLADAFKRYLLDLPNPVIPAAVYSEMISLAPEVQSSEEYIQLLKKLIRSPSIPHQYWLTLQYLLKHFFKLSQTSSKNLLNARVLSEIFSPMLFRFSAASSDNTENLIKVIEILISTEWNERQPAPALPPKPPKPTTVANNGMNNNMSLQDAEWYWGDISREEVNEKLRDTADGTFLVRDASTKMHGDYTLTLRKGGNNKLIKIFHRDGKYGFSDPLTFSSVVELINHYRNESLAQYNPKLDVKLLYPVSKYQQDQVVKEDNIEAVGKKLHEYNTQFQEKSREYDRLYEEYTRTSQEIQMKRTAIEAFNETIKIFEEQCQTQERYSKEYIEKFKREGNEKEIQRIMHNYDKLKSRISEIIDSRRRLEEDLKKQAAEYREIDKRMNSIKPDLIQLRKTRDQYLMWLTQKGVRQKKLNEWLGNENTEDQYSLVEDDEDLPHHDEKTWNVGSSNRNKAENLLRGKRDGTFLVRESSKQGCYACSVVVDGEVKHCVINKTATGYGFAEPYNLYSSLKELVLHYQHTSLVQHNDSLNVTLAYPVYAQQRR", "experiment": "PI3 Kinase TR-FRET assay, isoform β", "format": "biochemical", "conditions": "read-out: inhibition of PI3 kinase isoform β, IC50", "method": "The ability of compounds of the invention to inhibit PI3K activity was determined in a homogeneous TR-FRET assay using a PI3K assay kit (Millipore, USA; cat #33-016) according to manufacturer's instructions. PI3-Kinases (isoforms α, β, γ and δ) catalyze the phosphorylation of phosphatidylinositol, PIP2 to PIP3 in the presence of ATP and Mg^2+. The PIP3 product is detected by displacement of biotin-PIP3 from an energy transfer complex consisting of Europium labeled anti-GST monoclonal antibody, a GST-tagged PH domain, biotinylated PIP3 and Streptavidin-APC. Excitation of Europium in the complex results in an energy transfer to the APC and a fluorescence emission at 665 nm. The PIP3 product displaces biotin-PIP3 from the complex resulting in a loss of energy transfer and thus a decrease in signal.\nTo test for the ability of compounds to inhibit the activity of PI3Kα (wild-type), exemplary compounds of formula (I) were dissolved in DMSO and directly distributed into 384-well plates at a volume of 0.5 μL. […] Fluorescence was measured at 615 and 665 nm upon excitation at 340 nm in a Victor™ V5 fluorometer (Perkin Elmer, USA). The fluorescence emission ratio at 665 to 615 nm, proportional to the kinase activity, was plotted against the compound concentration to generate dose-response curves and IC50 values were determined using GraphPad Prism® 5 software. […]"}, "pAkt(T308)": {"tested_on": "pAkt(T308)", "experiment": "In-cell Western assay, pAkt(T308), U87MG cells", "format": "cell-based", "conditions": "Homo sapiens, U-87 MG, read-out: inhibition of pAkt(T308), IC50", "method": "Cells from human prostate cancer cell line PC3 (American Type Culture Collection (ATCC), Manassas, Va. 20108 USA) were seeded at an optimal density of 22,000 cell/well in 96-well plates containing Ham's F12K medium (90 μL) and incubated overnight. The compound dilutions were carried out in 100% DMSO followed by a dilution in the medium. Test compounds were added in serial dilutions to the wells and incubated for 2 hours. The cells were washed and fixed with 4% paraformaldehyde. After incubation at room temperature for 1 hour in the dark, blocking was done for 2 hours at room temperature. […] IC50 values were calculated using a sigmoidal dose-response curve fit in GraphPad Prism® v5 software.\nIn-cell Western assays for pAkt(T308) and pS6RP were also carried out in a glioma cancer cell line with a PTEN null mutation (U87MG cells), in a similar manner to the protocol described above for PC3 cells, in order to assess the ability of the compounds to inhibit the Akt-pathway in a glioma cancer cell line. […] Compounds of the invention cause inhibition of pAkt(T308), pAkt(S473) and pS6RP in U87MG, BT474 and T47D cell lines as determined by these assays."}, "PC3 cells": {"tested_on": "PC3 cells", "experiment": "In vivo efficacy study (tumor growth suppression), PC3 xenograft", "conditions": "athymic male mice, after 14 days of dosing at 50 mg/kg qd po", "method": "PC3 cells were cultured at 37° C. in a 5% CO2 incubator using Hams F12 K medium. Five million (5×10^6) cells were implanted subcutaneously to the right flank of athymic male mice (Harlan, age: 6-7 weeks, weight: about 20 g). Tumor bearing mice were randomized when the tumor volume reached about 100 mm^3 Ten mice were used per group. Compounds of formula (I) were typically formulated using HPCD in PBS, pH 7.4 or in 10% Ethanol/40% Solutol/50% 50 mM aq. methanesulfonic acid and dosed orally (dose volume, 10 mL/kg). Solutions of the compounds were prepared immediately before dosing the animals. A vehicle control and a reference compound were included along with test compounds.\nThe tumor size was measured on alternate days using Vernier® calipers. Assuming tumors to be ellipsoid, the tumor volume was calculated using the formula: V=(D×d^2)/2 • where: • V (mm^3) is tumor volume • D is longest diameter in mm • d is shortest diameter in mm.\nChanges in tumor volume (Δ volumes) for each treated (T) and control (C) group were calculated by subtracting the mean tumor volume on the first day of treatment (starting day) from the mean tumor volume on the specified observation day. […]\nPercentage tumor growth inhibition was calculated as [100−% T/C]. Percentage body weight change was calculated as [(Body weight on specified observation day−Body weight on starting day)/Body weight on starting day]×100. […]"}}, "data": [{"smiles": "CC(=O)Nc1cccc(-c2cnc3c(N4CCOCC4)nc(-c4cnc(N)nc4)nc3c2)c1", "note": "[Example 3, N-(3-(2-(2-Aminopyrimidin-5-yl)-4-morpholinopyrido[3,2-d]pyrimidin-7-yl)-phenyl)acetamide]", "values": [{"measurement": "IC50", "setting": "PI3 kinase isoform β", "value": "< 500", "unit": "nM"}, {"measurement": "IC50", "setting": "pAkt(T308)", "value": "< 500", "unit": "nM"}, {"measurement": "tumor growth inhibition relative to vehicle control group", "setting": "PC3 cells", "value": "more than 40%"}]}]}
